Laboratory results as given in ChEMBL document CHEMBL1122784, “Antitumor imidazotetrazines. 1. Synthesis and chemistry of 8-carbamoyl-3-(2-chloroethyl)imidazo[5,1-d]-1,2,3,5-tetrazin-4(3 H)-one , a novel broad-spectrum antitumor agent” (J Med Chem, 1984).

Tests used:
[1] = system: Mus musculus; test: Compound was tested for mortality in L1210 leukemia implanted BDF1 mice on day 0 after ip administration of 5 mg/kg/day on day 1 out of 5 mice; type: functional; settings: route intraperitoneal
[2] = system: Mus musculus; test: Compound was evaluated for %T/C in L1210 leukemia implanted BDF1 mice on day 0 after ip administration of 80 mg/kg/day on day 1; type: functional; settings: route intraperitoneal
[3] = system: Mus musculus; test: Compound was evaluated for number of survivors in P388 leukemia implanted BDF1 mice on day 0 after ip administration of 6.25 mg/kg/day on day 60 out of 6 mice; type: functional; settings: route intraperitoneal
[4] = system: Mus musculus; test: Compound was evaluated for number of survivors in P388 leukemia implanted BDF1 mice on day 0 after ip administration of 12.5 mg/kg/day on day 60 out of 6 mice; type: functional; settings: route intraperitoneal
[5] = system: Mus musculus; test: Compound was tested for mortality in L1210 leukemia implanted BDF1 mice on day 0 after ip administration of 12.5 mg/kg/day on day 1-9 out of 6 mice; type: functional; settings: route intraperitoneal
[6] = Half-life period in 95% ethanol in diffuse laboratory light at 28 degrees celsius.; type: ADME
[7] = system: Mus musculus; test: Compound was tested for mortality in P388 leukemia implanted BDF1 mice on day 0 after ip administration of 6.25 mg/kg/day on day 1-5 out of 6 mice; type: functional; settings: route intraperitoneal
[8] = system: Mus musculus; test: Compound was tested for mortality in L1210 leukemia implanted BDF1 mice on day 0 after ip administration of 2.5 mg/kg/day on day 1-5 out of 5 mice; type: functional; settings: route intraperitoneal
[9] = system: Mus musculus; test: Compound was tested for mortality in P388 leukemia implanted BDF1 mice on day 0 after ip administration of 20 mg/kg/day on day 1-5 out of 5 mice; type: functional; settings: route intraperitoneal
[10] = system: Mus musculus; test: Compound was tested for mortality in P388 leukemia implanted BDF1 mice on day 0 after ip administration of 7.5 mg/kg/day on day 1-5 out of 5 mice; type: functional; settings: route intraperitoneal
[11] = Half-life period in phosphate buffer at pH 7.4 in the dark at 28 degrees celsius.; type: ADME
[12] = system: Mus musculus; test: Compound was tested for mortality in P388 leukemia implanted BDF1 mice on day 0 after ip administration of 25 mg/kg/day on day 1-5 out of 6 mice; type: functional; settings: route intraperitoneal
[13] = system: Mus musculus; test: Compound was tested for mortality in L1210 leukemia implanted BDF1 mice on day 0 after ip administration of 5 mg/kg/day on day 1-5 out of 5 mice; type: functional; settings: route intraperitoneal
[14] = system: Mus musculus; test: Compound was tested for mortality in P388 leukemia implanted BDF1 mice on day 0 after ip administration of 80 mg/kg/day on day 1 out of 5 mice; type: functional; settings: route intraperitoneal
[15] = system: Mus musculus; test: Compound was evaluated for number of survivors in P388 leukemia implanted BDF1 mice on day 0 after ip administration of 2.5 mg/kg/day on day 60 out of 5 mice; type: functional; settings: route intraperitoneal
[16] = system: Mus musculus; test: Compound was evaluated for %T/C in P388 leukemia implanted BDF1 mice on day 0 after ip administration of 6.25 mg/kg/day on day 1-5; type: functional; settings: route intraperitoneal
[17] = system: Mus musculus; test: Compound was tested for mortality in P388 leukemia implanted BDF1 mice on day 0 after ip administration of 20 mg/kg/day on day 1 out of 5 mice; type: functional; settings: route intraperitoneal
[18] = system: Mus musculus; test: Compound was evaluated for number of survivors in L1210 leukemia implanted BDF1 mice on day 0 after ip administration of 25 mg/kg/day on day 60 out of 6 mice; type: functional; settings: route intraperitoneal
[19] = system: Mus musculus; test: Compound was tested for mortality in P388 leukemia implanted BDF1 mice on day 0 after ip administration of 40 mg/kg/day on day 1 out of 5 mice; type: functional; settings: route intraperitoneal
[20] = system: Mus musculus; test: Compound was evaluated for number of survivors in L1210 leukemia implanted BDF1 mice on day 0 after ip administration of 3.12 mg/kg/day on day 60 out of 6 mice; type: functional; settings: route intraperitoneal
[21] = system: Mus musculus; test: Compound was evaluated for number of survivors in P388 leukemia implanted BDF1 mice on day 0 after ip administration of 7.5 mg/kg/day on day 60 out of 5 mice; type: functional; settings: route intraperitoneal
[22] = system: Mus musculus; test: Compound was evaluated for %T/C in L1210 leukemia implanted BDF1 mice on day 0 after ip administration of 6.25 mg/kg/day on day 1-9; type: functional; settings: route intraperitoneal
[23] = system: Mus musculus; test: Compound was evaluated for %T/C in L1210 leukemia implanted BDF1 mice on day 0 after ip administration of 12.5 mg/kg/day on day 1-9; type: functional; settings: route intraperitoneal
[24] = system: Mus musculus; test: Compound was tested for mortality in L1210 leukemia implanted BDF1 mice on day 0 after ip administration of 10 mg/kg/day on days 1-5 out of 5 mice; type: functional; settings: route intraperitoneal
[25] = system: Mus musculus; test: Compound was tested for mortality in P388 leukemia implanted BDF1 mice on day 0 after ip administration of 5 mg/kg/day on day 1 out of 5 mice; type: functional; settings: route intraperitoneal
[26] = system: Mus musculus; test: Compound was evaluated for %T/C in P388 leukemia implanted BDF1 mice on day 0 after ip administration of 40 mg/kg/day on day 1; type: functional; settings: route intraperitoneal
[27] = system: Mus musculus; test: Compound was evaluated for number of survivors in P388 leukemia implanted BDF1 mice on day 0 after ip administration of 20 mg/kg/day on day 60 out of 5 mice; type: functional; settings: route intraperitoneal
[28] = system: Mus musculus; test: Compound was tested for mortality in L1210 leukemia implanted BDF1 mice on day 0 after ip administration of 7.5 mg/kg/day on day 1-5 out of 5 mice; type: functional; settings: route intraperitoneal
[29] = system: Mus musculus; test: Compound was evaluated for %T/C in P388 leukemia implanted BDF1 mice on day 0 after ip administration of 25 mg/kg/day on day 1-5; type: functional; settings: route intraperitoneal
[30] = system: Mus musculus; test: Compound was tested for mortality in P388 leukemia implanted BDF1 mice on day 0 after ip administration of 12.5 mg/kg/day on day 1-5 out of 6 mice; type: functional; settings: route intraperitoneal
[31] = system: Mus musculus; test: Compound was evaluated for number of survivors in L1210 leukemia implanted BDF1 mice on day 0 after ip administration of 50 mg/kg/day on day 60 out of 6 mice; type: functional; settings: route intraperitoneal
[32] = system: Mus musculus; test: Compound was evaluated for number of survivors in P388 leukemia implanted BDF1 mice on day 0 after ip administration of 25 mg/kg/day on day 60 out of 6 mice; type: functional; settings: route intraperitoneal
[33] = system: Mus musculus; test: Compound was tested for mortality in L1210 leukemia implanted BDF1 mice on day 0 after ip administration of 3.12 mg/kg/day on day 1-9 out of 6 mice; type: functional; settings: route intraperitoneal
[34] = system: Mus musculus; test: Compound was evaluated for %T/C in P388 leukemia implanted BDF1 mice on day 0 after ip administration of 2.5 mg/kg/day on day 1-5; type: functional; settings: route intraperitoneal
[35] = system: Mus musculus; test: Compound was evaluated for %T/C in L1210 leukemia implanted BDF1 mice on day 0 after ip administration of 40 mg/kg/day on day 1; type: functional; settings: route intraperitoneal
[36] = system: Mus musculus; test: Compound was evaluated for %T/C in P388 leukemia implanted BDF1 mice on day 0 after ip administration of 10 mg/kg/day on day 1-5; type: functional; settings: route intraperitoneal
[37] = system: Mus musculus; test: Compound was tested for mortality in L1210 leukemia implanted BDF1 mice on day 0 after ip administration of 80 mg/kg/day on day 1 out of 5 mice; type: functional; settings: route intraperitoneal
[38] = system: Mus musculus; test: Compound was evaluated for %T/C in L1210 leukemia implanted BDF1 mice on day 0 after ip administration of 5 mg/kg/day on day 1-5; type: functional; settings: route intraperitoneal
[39] = system: Mus musculus; test: Compound was tested for mortality in P388 leukemia implanted BDF1 mice on day 0 after ip administration of 50 mg/kg/day on day 1-5 out of 6 mice; type: functional; settings: route intraperitoneal

Structure (SMILES): NC(=O)c1ncn2c(=O)n(CCCl)nnc12 [MITOZOLOMIDE]
- Mortality [1]: 0
- T/C [2]: 177%
- Survivors [3]: 0
- Survivors [4]: 1
- Mortality [5]: 0
- half-life [6]: 1.17 h
- Mortality [7]: 1
- Mortality [8]: 0
- Mortality [9]: 0
- Mortality [10]: 0
- half-life [11]: 1.63 h
- Mortality [12]: 0
- Mortality [13]: 0
- Mortality [14]: 0
- Survivors [15]: 0
- T/C [16]: 180%
- Mortality [17]: 0
- Survivors [18]: 6
- Mortality [19]: 0
- Survivors [20]: 0
- Survivors [21]: 5
- T/C [22]: 184%
- T/C [23]: >745%
- Mortality [24]: 0
- Mortality [25]: 0
- T/C [26]: >600%
- Survivors [27]: 5
- Mortality [28]: 0
- T/C [29]: 387%
- Mortality [30]: 0
- Survivors [31]: 0
- Survivors [32]: 4
- Mortality [33]: 0
- T/C [34]: 148%
- T/C [35]: >740%
- T/C [36]: >555%
- Mortality [37]: 0
- T/C [38]: 139%
- Mortality [39]: 0
